The test system of this test is BDF1 mice, P388 leukemia ip, median survival T/C. Description: NCI In Vivo Anticancer Drug Screen. Data for tumor model P388 Leukemia (intraperitoneal) in B6D2F1 (BDF1) mice. To be noted: endpoint: median survival time, higher = longer survival. Put shortly:
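T/C = treated-group survival ÷ vehicle-control survival; tumour transplanted into mice before dosing.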

Setting [1] is: dose: 25.0 mg/kg/injection, schedule: Q01DX009 (ip), vehicle: saline with Tween-80.
Setting [2] is: dose: 50.0 mg/kg/injection, schedule: Q01DX009 (ip), vehicle: saline with Tween-80.
[3] abbreviates: dose: 100.0 mg/kg/injection, schedule: Q01DX009 (ip), vehicle: saline with Tween-80.
The mark [4] stands for this setting: dose: 200.0 mg/kg/injection, schedule: Q01DX009 (ip), vehicle: saline with Tween-80.
Where [5] appears, read: dose: 100.0 mg/kg/injection, schedule: Q01DX009 (ip), vehicle: Klucel (hydroxypropylcellulose) (HPC).
Where [6] appears, read: dose: 100.0 mg/kg/injection, schedule: Q04DX003 (ip), vehicle: Klucel (hydroxypropylcellulose) (HPC).
Where [7] appears, read: dose: 200.0 mg/kg/injection, schedule: Q01DX009 (ip), vehicle: Klucel (hydroxypropylcellulose) (HPC).
Setting [8] is: dose: 200.0 mg/kg/injection, schedule: Q04DX003 (ip), vehicle: Klucel (hydroxypropylcellulose) (HPC).
The mark [9] stands for this setting: dose: 400.0 mg/kg/injection, schedule: Q04DX003 (ip), vehicle: Klucel (hydroxypropylcellulose) (HPC).
Setting [10] is: dose: 100.0 mg/kg/injection, schedule: Q04DX003 (ip), vehicle: saline with Tween-80.
[11] abbreviates: dose: 200.0 mg/kg/injection, schedule: Q04DX003 (ip), vehicle: saline with Tween-80.
Where [12] appears, read: dose: 400.0 mg/kg/injection, schedule: Q04DX003 (ip), vehicle: saline with Tween-80.
Where [13] appears, read: dose: 50.0 mg/kg/injection, schedule: Q01DX009 (ip), vehicle: Klucel (hydroxypropylcellulose) (HPC).

Where “and” joins values, the source holds several entries; their conditions need not be identical. Equal entries are not always repeated. Inconclusive results and toxic doses are left out.

Regarding `CC1CCCCC1(O)CSc1ccccc1` (stereo not given), the T/C by setting is: (dose: 12.5 mg/kg/injection, schedule: Q01DX009 (ip), vehicle: saline with Tween-80) 100 % of control and 106 % of control; under setting [1], 102 % of control and 116 % of control; under setting [2], 103 % of control and 113 % of control; under setting [3], 116 % of control (2×) and 124 % of control; under setting [4], 101 % of control.

`COc1cc(Br)c2c(c1OC)C(=O)CC2`: the T/C was 104 % of control under setting [5]; 100 % of control under setting [6]; 95 % of control under setting [7]; 91 % of control under setting [8]; 100 % of control (dose: 400.0 mg/kg/injection, schedule: Q01DX009 (ip), vehicle: Klucel (hydroxypropylcellulose) (HPC)); 95 % of control under setting [9].

With `COc1ccc2[nH]c(-c3ccccc3)c(-c3ccccc3)c2c1`, the T/C reads like this: under setting [1], 95 % of control; under setting [2], 90 % of control; under setting [3], 90 % of control.

For the compound `O=C1OC(O)(c2ccccc2)C(c2ccccc2)=C1c1ccccc1` (stereo not given), the T/C under setting [2] is 119 % of control, the T/C under setting [3] was 110 % of control and the T/C under setting [4] is 108 % of control.

In the case of `O=S(=O)(O)c1ccc(CCCCCCl)cc1`, the T/C is 109 % of control (dose: 25.0 mg/kg/injection, schedule: Q01DX009 (ip), vehicle: saline); 100 % of control (dose: 50.0 mg/kg/injection, schedule: Q01DX009 (ip), vehicle: saline); 110 % of control (dose: 100.0 mg/kg/injection, schedule: Q01DX001 (ip), vehicle: saline); 104 % of control and 110 % of control (dose: 100.0 mg/kg/injection, schedule: Q01DX009 (ip), vehicle: saline); 90 % of control (dose: 200.0 mg/kg/injection, schedule: Q01DX001 (ip), vehicle: saline); 100 % of control (dose: 200.0 mg/kg/injection, schedule: Q01DX009 (ip), vehicle: saline). Besides, the T/C (dose: 400.0 mg/kg/injection, schedule: Q01DX001 (ip), vehicle: saline) was 90 % of control and the T/C (dose: 400.0 mg/kg/injection, schedule: Q01DX009 (ip), vehicle: saline) was 110 % of control.

Consider `COc1cc(Cc2nccc3cc(OC)c(OC)cc23)c([N+](=O)[O-])cc1OC`, for which the T/C is 90 % of control (dose: 100.0 mg/kg/injection, schedule: Q04DX003 (ip), vehicle: saline sonified); 95 % of control (dose: 200.0 mg/kg/injection, schedule: Q04DX003 (ip), vehicle: saline sonified); 90 % of control (dose: 400.0 mg/kg/injection, schedule: Q04DX003 (ip), vehicle: saline sonified).

Regarding `O=C(c1ccccc1)C1C(c2ccccc2)N1CCl` (stereo not given), the T/C is, setting by setting: under setting [6], 113 % of control; under setting [8], 100 % of control; under setting [9], 100 % of control.

Regarding `CCCCCCCCOc1cc(OC(C)=O)c2c(ccc3ccccc32)c1`, the T/C reads like this: under setting [10], 88 % of control; under setting [11], 87 % of control; under setting [12], 88 % of control.

Take `CC(=O)OCC1OC(n2cnc3c(=S)nc(N)[nH]c32)C(OC(C)=O)C1OC(C)=O` (stereo not given): the T/C was 113 % of control (dose: 3.5 mg/kg/injection, schedule: Q01DX009 (ip), vehicle: saline with Tween-80); 122 % of control (dose: 5.2 mg/kg/injection, schedule: Q01DX009 (ip), vehicle: saline with Tween-80); 90 % of control (dose: 12.0 mg/kg/injection, schedule: Q01DX009 (ip), vehicle: saline with Tween-80); 100 % of control (dose: 18.0 mg/kg/injection, schedule: Q01DX009 (ip), vehicle: saline with Tween-80); 90 % of control (dose: 26.0 mg/kg/injection, schedule: Q01DX009 (ip), vehicle: saline with Tween-80); 90 % of control (dose: 40.0 mg/kg/injection, schedule: Q01DX009 (ip), vehicle: saline with Tween-80). Further, the T/C under setting [2] was 90 % of control; the T/C (dose: 132.0 mg/kg/injection, schedule: Q04DX003 (ip), vehicle: saline with Tween-80) was 100 % of control; the T/C under setting [11] is 166 % of control.

As for `N#Cc1ncc(C(Cl)(Cl)Cl)nc1Cl`, the T/C reads like this: under setting [2], 110 % of control; (dose: 50.0 mg/kg/injection, schedule: Q04DX003 (ip), vehicle: saline with Tween-80) 105 % of control; under setting [3], 120 % of control; under setting [10], 115 % of control and 118 % of control; under setting [11], 120 % of control.

As for `CCCCC(=O)OCC(=O)[C@]1(O)Cc2c(O)c3c(c(O)c2[C@@H](OC2CC(NC(=O)C(F)(F)F)C(O)C(C)O2)C1)C(=O)c1c(OC)cccc1C3=O` (stereo not given in full), the T/C by setting is: (dose: 5.0 mg/kg/injection, schedule: Q01DX004 (ip), vehicle: other) 162 % of control; (dose: 10.0 mg/kg/injection, schedule: Q01DX004 (ip), vehicle: other) 155 % of control and 189 % of control; (dose: 13.0 mg/kg/injection, schedule: Q01DX004 (ip), vehicle: saline with Tween-80) 203 % of control; (dose: 20.0 mg/kg/injection, schedule: Q01DX004 (ip), vehicle: other) 288 % of control and 187 % of control; (dose: 21.0 mg/kg/injection, schedule: Q01DX004 (ip), vehicle: saline with Tween-80) 221 % of control; (dose: 21.6 mg/kg/injection, schedule: Q01DX004 (ip), vehicle: saline with Tween-80) 221 % of control. Moreover, the T/C (dose: 25.2 mg/kg/injection, schedule: Q04DX003 (ip), vehicle: other) was 175 % of control; the T/C (dose: 30.0 mg/kg/injection, schedule: Q01DX004 (ip), vehicle: other) is 263 % of control and 351 % of control; the T/C (dose: 36.0 mg/kg/injection, schedule: Q01DX004 (ip), vehicle: saline with Tween-80) is 353 % of control; the T/C (dose: 40.0 mg/kg/injection, schedule: Q01DX004 (ip), vehicle: other) is 98 % of control; the T/C (dose: 42.0 mg/kg/injection, schedule: Q04DX003 (ip), vehicle: other) was 262 % of control; the T/C (dose: 50.0 mg/kg/injection, schedule: Q01DX004 (ip), vehicle: other) was 86 % of control. For the same compound, the T/C (dose: 70.0 mg/kg/injection, schedule: Q04DX003 (ip), vehicle: other) was 506 % of control.

With `CCCCCCCCC(CO)CO`, the T/C was 100 % of control under setting [2], 92 % of control under setting [3] and 95 % of control under setting [4].

`O=C(O)CCSc1nc2ccccc2s1`: the T/C by setting is: (dose: 50.0 mg/kg/injection, schedule: Q04DX003 (ip), vehicle: Klucel (hydroxypropylcellulose) (HPC)) 100 % of control; under setting [6], 100 % of control; under setting [8], 113 % of control.

As for `Cc1ccc(NC(=O)N(CCCCl)N=O)cc1`, the T/C (dose: 25.0 mg/kg/injection, schedule: Q01DX009 (ip), vehicle: Klucel (hydroxypropylcellulose) (HPC)) was 105 % of control; the T/C under setting [13] is 119 % of control; the T/C under setting [5] was 111 % of control; the T/C under setting [7] is 95 % of control.

In the case of `COc1ccc(OC(=O)CCCl)cc1`, the T/C by setting is: under setting [10], 100 % of control; under setting [11], 100 % of control; under setting [12], 113 % of control.

Turning to `O=C(O)CC[S-].[Ag+]`, the T/C was 90 % of control under setting [1], 90 % of control under setting [2] and 86 % of control under setting [3].

As to `COc1ccccc1N1C(=O)CC(Sc2ccccc2N)C1=O` (stereo not given), the T/C runs as follows: under setting [3], 91 % of control; (dose: 132.0 mg/kg/injection, schedule: Q01DX009 (ip), vehicle: saline with Tween-80) 95 % of control; under setting [4], 105 % of control; (dose: 300.0 mg/kg/injection, schedule: Q01DX009 (ip), vehicle: saline with Tween-80) 105 % of control; (dose: 400.0 mg/kg/injection, schedule: Q01DX009 (ip), vehicle: saline with Tween-80) 91 % of control.

Regarding `O=S1(=O)CCN(C2CCCCCC2)CC1`, the T/C was 106 % of control under setting [13], 111 % of control under setting [5] and 109 % of control under setting [7].

`O=C(O)C1CCC[N-]C1.O=C(O)C1CCC[N-]C1.[Cl][Pt+2][Cl]` (stereo not given): the T/C was 95 % of control (dose: 5.0 mg/kg/injection, schedule: Q04DX003 (ip), vehicle: saline); 86 % of control (dose: 10.0 mg/kg/injection, schedule: Q04DX003 (ip), vehicle: saline); 95 % of control (dose: 20.0 mg/kg/injection, schedule: Q04DX003 (ip), vehicle: saline).

In the case of `CCCCCCc1c(C(OC)OC)[nH]c(=S)[nH]c1=O`, the T/C runs as follows: under setting [5], 96 % of control; under setting [7], 89 % of control.

Values taken from PubChem BioAssay AID328 (DTP/NCI, 2004).
